In patent publication US20230383291A1, “PEPTIDE-BASED TRANSDUCTION OF NON-ANIONIC POLYNUCLEOTIDE ANALOGS FOR GENE EXPRESSION MODULATION” (FELDAN BIO INC., priority 2020, published 2023):

Tests used:
Gli1 protein [1] = test: Gli1 protein level in cells isolated from treated tumor explants, cytofluorometry; assay type: cell-based; settings: PMO-Gli1 and shuttle agent combination; between 24 and 48 hours of incubation; data not shown
Experimental: Freshly obtained basal cell carcinoma-type tumors following Mohs-type surgery were incubated in complete DMEM culture medium on a wire mesh with the surface exposed to air. In order to allow the cargo to be delivered to the epidermis and dermis, the tumors were washed with PBS 1× and the stratum corneum of the explants is permeabilized with a Pantec PLEASE™ laser according to the following parameters: pore density 2.5%, 1 pulse/pore, Array Size 14 mm, depth pores 20 μm (4.9 J/cm^2, 0.8 W). The explants were then divided into two halves, one half was treated with a solution of PBS 1×-2% hydroxyethyl cellulose containing 25 μM of PMO-Gli1-Cy5 and 40 μM of FSD250, while the other half was treated with the same solution containing PMO-Gli1-cy5 only (without shuttle agent; control). […] 10 μm sections were transferred to coverslips and treated with ProLong™ Diamond for fluorescence microscopy analysis. […] The levels of Gli1 protein were measured by cytofluorometry at different times of culture following the fixation and labeling of the isolated dermal and epidermal cells with an anti Gli1-Alexa 647 antibody. Between 24 and 48 hours of incubation following the treatment of the tumors, the level of the Gli1 protein decreased considerably (50%) in cultured cells which were treated with the PMO-Gli1 and shuttle agent combination, measured by flow cytometry (data not shown).

Gli1 protein [2] = test: Gli1 knock-down in DU145 cells, Western blot; assay type: cell-based, Human; settings: 6 μM PMO
Experimental: DU145 cells were trypsinized and plated (500 000 cells/well) in a 24 well-dish the day prior to the experiment. […] Cells were washed once with PBS and delivery mixes were added on cells for five minutes. Then, 2 mL of RPMI-1640 containing 10% FBS was added to the mix and removed. Untreated cells were incubated with RPMI-1640 only. Cells were incubated in fresh RPMI-1640 containing 10% FBS. Forty height hours later, medium was removed and cells were washed once with PBS prior to trypsinization. Cells were harvested, collected by centrifugation, washed, and resuspended with PBS. Then, PMO-FITC positive and PMO-FITC negative cells were sorted and collected by virtue of FACS (BD FACS Aria Fusion). FITC-positive and FITC-negative cell samples were collected by centrifugation and resuspended in 50 μL protein extraction RIPA buffer (150 mM NaCl, 1% Nonidet™ P-40, 0.1% SDS, 0.5% Sodium deoxycholate, 25 mM Tris). Total protein concentrations were measured with a BCA protein assay kit. For all conditions, 10 μg of proteins were prepared at a final volume of 40 μL with 4× Laemmeli and RIPA buffer. Protein samples were then heated at 90° C. and separated through an 8% SDS-PAGE gel. Proteins were then transferred over night (25 volts) onto a […] PVDF membrane. Membranes were blocked using a 5% bovine serum albumin, Tris Buffer Saline, 0.1% Tween® 20 solution (5% BSA/TBS-T) for an hour. After blocking, the membrane was incubated for an hour with a 5% BSA/TBS-T solution containing anti alpha-Actinin (D6F6) primary antibody at a 1:1000. Alpha-Actinin protein present in the cell lysates served as loading control. Subsequently, the membranes were incubated over night with a 5% BSA/TBS-T solution containing anti-Gli1 primary antibody diluted 1:500. The membrane was then subjected to a 1-hour incubation at 1:5000 dilution of HRP-conjugated goat anti-rabbit secondary antibody 5% BSA/TBS-T solution. Chemiluminescence detection was performed using Clarity™ Western ECL Substrate and a ChemiDoc™ XRS apparatus. Gli1 and Alpha-Actinin densitometry was assessed using ImageJ™ software. […]

Question: With “PMO-Gli1: antisense PMO molecule designed to knock-down expression of the Gli1 protein; off-target control in the GFPd assay (antisense GTCATCGAGTTGAACATGGCGTCTC; all phosphorodiamidate morpholino (PMO))” as the substance, how does the “decrease of the level of the Gli1 protein” value (Gli1 protein [1]) read?
Answer: The value was 50%.

Question: What about the Gli1 protein expression (Gli1 protein [2]; 3.75 μM FSD250, 48 hours) of the same substance?
Answer: Its Gli1 protein expression is “knocked-down”.

Question: And the Gli1 protein expression (Gli1 protein [2]; FITC+ cells vs FITC− cells, 5 μM FSD250, 48 hours)?
Answer: Its Gli1 protein expression is “knocked-down”.
